Key:
[1] = system: IFN-γ production in human peripheral blood mononuclear cells (PBMCs); test: Experiment 1: IFN-γ production by PHA-stimulated human PBMCs, ELISA; type: cell-based; details: for IFN-γ Concentration: PHA 5 μg/ml; for IFN-γ Concentration, Mean: 24 h
Method: The ex vivo activity of various compounds towards suppression of IFN-γ production in human peripheral blood mononuclear cells (PBMCs) was studied.
[…] They were not taking any other prescribed medication that could interfere with the results.
The blood was transferred into 50 ml centrifuge tubes (Corning, USA) containing heparin sodium salt 37.5 mg heparin powder diluted in 300-500 μl phosphate buffered saline (PBS) for 50 ml blood), and centrifuged at 2000 rpm for 10 minutes, and the plasma portion was separated. The plasma was further centrifuged at 3000 rpm for 10 minutes, and the supernatant separated and kept for later use.
The blood cells from the initial centrifugation were diluted with an equal volume of RPMI-1640 (Sigma, UK), and layered (2:1) onto Lymphoprep (Axis-Shield, Norway) in 25 ml universal tubes (Bibby Sterilin, UK) for density gradient centrifugation at 2500 rpm for 30 minutes.
PBMCs (lymphocytes and monocytes) were then removed from the interface, diluted in an equal volume of RPMI-1640 and washed twice by centrifugation at 3000 rpm for 10 minutes.
For testing, the PBMCs were re-suspended in a known volume of culture medium containing RPMI-1640 supplemented with 2 mM L-glutamine, 100 U penicillin, and 100 μg streptomycin (Sigma, UK).
The cell count was determined by the use of a haemocytometer using 10 μl of the cell suspension. The number of cells was determined based on a count in 5 random 1 mm squares.
The cell solution was then diluted with the supplemented RPMI-1640 medium to ensure a cell count of 2×10^6 cells/ml.
The PBMC suspension was added to tissue culture tubes (Bibby Sterilin, UK) with 5% autologous plasma, 5 μg/mlphytohaemaglutinin (PHA) to stimulate T-lymphocyte IFN-γ production, and a solution containing various concentrations of the compound to be studied. A control containing no compound was also cultured for each subject.
In the case of lamotrigine, the isethionate salt was used, and diluted with RPMI-1640 to produce 100 μM, 30 μM, 10 μM and 3 μM solutions that were tested on PBMCs from the first three subjects. With PBMC's from the other two subjects, a 300 μM solution was also tested.
For sipatrigine, the mesylate salt was used, and diluted with RPMI-1640 to produce 30 μM, 10 μM, 3 μM and 1 μM solutions. It was tested on PBMCs from the first three subjects only.
(§1) The tubes were incubated at 37° C. for 24 hours under a 5% CO2 atmosphere. After incubation, the cells (>75% viable according to trypan blue test) were centrifuged at 3000 prm for 10 minutes, and the cell-free supernatants were collected and stored at −70° C. before analysis for IFN-γ.
Levels of IFN-γ produced by the PBMCs were determined by the DuoSet ELISA Development system for human IFN-γ (RD Systems, UK), with a sensitivity of 15.6-1000 pg/ml.
Capture antibody, detection antibody, standard and streptavidin-HRP (streptavidin conjugated to horseradish peroxidase) were provided. A 96-well microtitre plate (Corning CoStar, flat bottom, polystyrene, high binding microtitre plate, UK) was coated with 100 μl per well of capture antibody (mouse anti-human IFN-γ at 4.0 μg/ml), sealed and incubated overnight. Unbound capture antibody was washed from the wells three times, using a wash buffer (0.05% Tween 20 in PBS). Block buffer (1% bovine serum albumin (BSA) in PBS) was then added. After incubation for 1 hour, the wells were washed, and sample culture supernatants or standards were added. A 7-point standard curve (in the range 15.6-1000 pg/ml) was produced from […] recombinant human IFN-γ using 2-fold serial dilutions in reagent diluent (0.1% BSA, 0.05% Tween 20 in tris-buffered saline (20 mM Trizma base, 150 mM NaCl)). The sealed plates were left to incubate for 2 hours.
After further washing, the detection antibody (biotinylated goat anti-human IFN-γ at 175 ng/ml) was added, and the plates sealed and incubated for a further 2 hours. […]

PBMCs = test: Experiment 1: PBMC viability, trypan blue exclusion; type: cell-based, human; details: after 24 h incubation
Method: Cell viability was checked using trypan blue exclusion, using 0.04% trypan blue solution (0.4% trypan blue solution (Sigma, UK) diluted 10× with PBS). 10 μl trypan blue solution was mixed with 10 μl cell suspension, and after 5 minutes was mounted onto the haemocytometer. The total number of cells, and the total number of viable (colourless) cells were counted in three 1 mm squares. Viability was greater than 85% in all cases.
as §1

Nc1nnc(-c2cccc(Cl)c2Cl)c(N)n1 [Lamotrigine, 3,5-diamino-6-(2,3-dichlorophenyl)-1,2,4-triazine]
IFN-γ Concentration ([1]; 3 μM, Subject 1, 24 h): 1153.13 pg/mL
IFN-γ Concentration ([1]; 3 μM, Subject 2, 24 h): 1238.68 pg/mL
IFN-γ Concentration ([1]; 3 μM, Subject 3, 24 h): 1641.69 pg/mL
IFN-γ Concentration ([1]; 3 μM, Subject 4, 24 h): 937.30 pg/mL
IFN-γ Concentration ([1]; 3 μM, Subject 6, 24 h): 1305.54 pg/mL
IFN-γ Concentration, Mean ([1]; 3 μM, mean of five subjects): 1255.27 pg/mL
IFN-γ Concentration ([1]; 10 μM, Subject 1, 24 h): 923.32 pg/mL
IFN-γ Concentration ([1]; 10 μM, Subject 2, 24 h): 1307.46 pg/mL
IFN-γ Concentration ([1]; 10 μM, Subject 3, 24 h): 1180.21 pg/mL
IFN-γ Concentration ([1]; 10 μM, Subject 4, 24 h): 895.04 pg/mL
IFN-γ Concentration ([1]; 10 μM, Subject 6, 24 h): 1227.25 pg/mL
IFN-γ Concentration, Mean ([1]; 10 μM, mean of five subjects): 1106.66 pg/mL
IFN-γ Concentration ([1]; 30 μM, Subject 1, 24 h): 872.99 pg/mL
IFN-γ Concentration ([1]; 30 μM, Subject 2, 24 h): 1089.69 pg/mL
IFN-γ Concentration ([1]; 30 μM, Subject 3, 24 h): 897.48 pg/mL
IFN-γ Concentration ([1]; 30 μM, Subject 4, 24 h): 853.66 pg/mL
IFN-γ Concentration ([1]; 30 μM, Subject 6, 24 h): 1191.37 pg/mL
IFN-γ Concentration, Mean ([1]; 30 μM, mean of five subjects): 981.04 pg/mL
IFN-γ Concentration ([1]; 100 μM, Subject 1, 24 h): 834.21 pg/mL
IFN-γ Concentration ([1]; 100 μM, Subject 2, 24 h): 886.41 pg/mL
IFN-γ Concentration ([1]; 100 μM, Subject 3, 24 h): 392.96 pg/mL
IFN-γ Concentration ([1]; 100 μM, Subject 4, 24 h): 775.28 pg/mL
IFN-γ Concentration ([1]; 100 μM, Subject 6, 24 h): 1095.88 pg/mL
IFN-γ Concentration, Mean ([1]; 100 μM, mean of five subjects): 796.95 pg/mL
IFN-γ Concentration ([1]; 300 μM, Subject 4, 24 h): 495.48 pg/mL
IFN-γ Concentration ([1]; 300 μM, Subject 6, 24 h): 798.32 pg/mL
IFN-γ Concentration, Mean ([1]; 300 μM, mean of two subjects): 646.90 pg/mL
inhibition of IFN-γ production, trend ([1]; 300 μM, two subjects, no significance value calculated): continuing trend towards further increased inhibition
inhibition of IFN-γ production, significance recalculated without subject 3 ([1]; 10, 30 and 100 μM, four subjects): statistically significant (P<0.05) inhibition of IFN-γ production
inhibition of IFN-γ production (in words) ([1]; Experiment 1, human PBMCs): inhibits the amount of IFN-γ produced by the PBMCs
reduction in IFN-γ production ([1]; Subject 3, 100 μM): 75%
reduction of IFN-γ produced by PBMCs, significance vs control ([1]; concentrations of 10 to 100 μM, paired Student's t-test): statistically significant (P<0.05) reductions
effect on PBMC viability (PBMCs): did not appear to alter PBMC viability
